This passage reports Activity, Stability and IC50 results from ChEMBL document CHEMBL5375954, “Discovery and Evaluation of C6-Substituted Pyrazolopyrimidine-Based Bisphosphonate Inhibitors of the Human Geranylgeranyl Pyrophosphate Synthase and Evaluation of Their Antitumor Efficacy in Multiple Myeloma, Pancreatic Ductal Adenocarcinoma, and Colorectal Cancer” (J Med Chem, 2023).

The test system of data set [1] is HCT-116. As to the kind of experiment: Induction of apoptosis in human HCT-116 cells assessed as necrotic cells at 1 uM incubated for 72 hrs in presence of geranylgeraniol by APC-Annexin-V/7-AAD staining based flow cytometry (reference value: 2.99%). Format: functional. For orientation: In flow cytometry, cells or beads pass a laser one at a time.
Data set [2] is described as follows: Metabolic stability in Beagle dog liver microsomes assessed as compound remaining incubated for 45 mins in presence of NADPH by LC-MS/MS analysis. The settings on record: 0.75 h. It is filed as ADME, Canis lupus familiaris, Microsome.
Data set [3] can be described thus: Hepatotoxicity in female NSG mouse xenografted with human RPMI-8226 cells assessed as foci of necrosis at 3 mg/kg, ip administered 3 times a week for 26 days and measured 48 hrs post last dose by H and E staining based assay. Format: toxicity, organism-based. The settings on record: in vivo, 672 h, time 28 day. Background: Xenograft models place foreign cells or tissue in a host animal.

For data set [4], the system named is RPMI-8226. In words: Antiproliferative activity against human RPMI-8226 cells harboring KRAS G12A mutant at 0.1 to 10000 nM incubated for 72 hrs by MTS assay. Format: functional, cell-based. As to conditions: dose 0.1-10000 nM. On the technique in general: Formazan colour is commonly taken as a measure of viable cells.
The nature of data set [5]: Toxicity in NSG mouse xenografted with human RPMI-8226 cells assessed as reduction in body weight at 3 mg/kg, ip administered 3 times a week for 26 days and measured daily. The settings on record: in vivo, time 26 day. Format: organism-based.
Data set [6] is described as follows: Metabolic stability in Sprague-Dawley rat liver microsomes assessed as compound remaining incubated for 45 mins in presence of NADPH by LC-MS/MS analysis. Format: ADME, Microsome. The settings on record: 0.75 h.
Data set [7] can be described thus: Hepatotoxicity in female NSG mouse xenografted with human RPMI-8226 cells assessed as single-cell necrosis at 3 mg/kg, ip administered 3 times a week for 26 days and measured 48 hrs post last dose by H and E staining based assay. The settings on record: in vivo, 672 h, time 28 day. Format: toxicity, organism-based.
For data set [8], the system named is MIA PaCa-2. As to the kind of experiment: Induction of apoptosis in human MIA PaCa-2 cells at 1 uM incubated for 72 hrs in presence of geranylgeraniol by APC-Annexin-V/7-AAD staining based flow cytometry. It is filed as functional, cell-based.
The subject of data set [9] is KMS-28PE. In words: Antiproliferative activity against human KMS-28-PE cells harboring KRAS G12A mutant at 0.1 to 10000 nM incubated for 72 hrs by MTS assay. The settings on record: dose 0.1-10000 nM. Format: functional, cell-based.
Data set [10] concerns HCT-116. As to the kind of experiment: Induction of apoptosis in human HCT-116 cells assessed as early apoptotic cells at 1 uM incubated for 72 hrs by APC-Annexin-V/7-AAD staining based flow cytometry (reference value: 1.16%). Format: functional.
Data set [11] in a line: Toxicity in NSG mouse xenografted with human MIA PaCa-2 cells assessed as appearance of skin lesions at 3 mg/kg, ip administered 3 times a week for 26 days and measured daily. It is filed as organism-based. As to conditions: in vivo, time 26 day.
Data set [12] relates to HCT-116. As to the kind of experiment: Induction of apoptosis in human HCT-116 cells assessed as live cells at 1 uM incubated for 72 hrs in presence of geranylgeraniol by APC-Annexin-V/7-AAD staining based flow cytometry (reference value: 95.3%). It is filed as functional.
Data set [13] addresses T1, Geranylgeranyl pyrophosphate synthase (Homo sapiens, UniProt O95749).
T1 sequence (O95749 whole entry): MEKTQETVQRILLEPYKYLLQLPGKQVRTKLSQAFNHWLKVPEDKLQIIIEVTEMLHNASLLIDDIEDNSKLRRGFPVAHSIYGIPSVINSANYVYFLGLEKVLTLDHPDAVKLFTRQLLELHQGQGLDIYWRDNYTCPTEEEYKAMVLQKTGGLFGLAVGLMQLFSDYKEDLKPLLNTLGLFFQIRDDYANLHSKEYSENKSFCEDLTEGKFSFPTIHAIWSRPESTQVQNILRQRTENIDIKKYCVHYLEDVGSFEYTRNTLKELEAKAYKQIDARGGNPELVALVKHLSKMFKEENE
In words: Inhibition of N-terminal His6 tagged human GGPPS expressed in Escherichia coli BL21(DE3) cells in presence of FPP and [14C]IPP by scintillation counting analysis.

The nature of data set [14]: Hepatotoxicity in female NSG mouse xenografted with human RPMI-8226 cells assessed as eosinophilic degeneration at 3 mg/kg, ip administered 3 times a week for 26 days and measured 48 hrs post last dose by H and E staining based assay. Format: toxicity, organism-based. As to conditions: in vivo, 672 h, time 28 day.
Data set [15] deals with MIA PaCa-2. As to the kind of experiment: Induction of apoptosis in human MIA PaCa-2 cells assessed as necrotic cells at 1 uM incubated for 72 hrs by APC-Annexin-V/7-AAD staining based flow cytometry (reference value: 0.75%). It is filed as functional.
The test system of data set [16] is JJN-3. In words: Antiproliferative activity against human JJN-3 cells harboring wild type KRAS at 0.1 to 10000 nM incubated for 72 hrs by MTS assay. It is filed as functional, cell-based. The settings on record: dose 0.1-10000 nM.
The species named for data set [17] is Mus musculus. In words: Cytotoxicity against KPC mouse pancreatic cancer organoid ccmT4 at 1 uM incubated for 72 hrs by CellTiter-Glo luminescence based analysis. Format: functional, tissue-based.
For data set [18], the system named is HCT-116. In words: Induction of apoptosis in human HCT-116 cells assessed as necrotic cells at 1 uM incubated for 72 hrs by APC-Annexin-V/7-AAD staining based flow cytometry (reference value: 2.99%). It is filed as functional.
Data set [19] concerns MIA PaCa-2. As to the kind of experiment: Induction of apoptosis in human MIA PaCa-2 cells assessed as live cells at 1 uM incubated for 72 hrs by APC-Annexin-V/7-AAD staining based flow cytometry (reference value: 97.7%). It is filed as functional.

The source made the active and inactive calls. No cut-off for these calls is given here.

The term IC50 denotes the concentration at which inhibition is half-maximal.

Consider `Cn1ncc2c(NC(P(=O)(O)O)P(=O)(O)O)nc(-c3cccc(C(=O)Nc4ccc(C(F)(F)F)cc4)c3)nc21`, for which the Activity is 2.55% in [1]; “Non-Toxic” in [3]; “Non-Toxic” in data set [5]; “Non-Toxic” in [7]; 20.7% in [10]; “Non-Toxic” in [11]. Also, the Activity in data set [12] is on record as 93.2%; in data set [14] it was “Non-Toxic”; in data set [15] it was 13.4%; in [18], 4.6%; in [19] it was 32.1%. For the same compound, the Stability came to 87.7% in data set [2] and 89.7% in data set [6]. The result in data set [4], in data set [9], in data set [16] and in data set [17] was Active. In [8], the outcome was inactive. For the same compound, the IC50 in data set [13] stood at 12 nM.
